Drawing on ChEMBL document CHEMBL1135480, “Design and quantitative structure-activity relationship of 3-amidinobenzyl-1H-indole-2-carboxamides as potent, nonchiral, and selective inhibitors of blood coagulation factor Xa” (J Med Chem, 2002), this text covers Ki for 84 compounds.

Molecules are shown by their SMILES. Where “and” joins values, the source holds several entries; their conditions need not be identical. Equal entries are not always repeated.

The Ki is a measure of affinity in units of concentration, obtained from inhibition or displacement. The low end stands for higher affinity, the high end for lower affinity.

This assay addresses Coagulation factor X (Homo sapiens, UniProt P00742). Briefly: Inhibition of Coagulation factor Xa.

Sequence of Coagulation factor X (P00742 41-179 limits assumed): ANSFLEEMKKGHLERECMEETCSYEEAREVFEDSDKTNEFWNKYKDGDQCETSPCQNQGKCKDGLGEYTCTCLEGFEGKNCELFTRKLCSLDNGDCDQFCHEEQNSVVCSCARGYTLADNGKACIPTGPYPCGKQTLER
Sequence of Coagulation factor X (P00742 235-488 limits assumed): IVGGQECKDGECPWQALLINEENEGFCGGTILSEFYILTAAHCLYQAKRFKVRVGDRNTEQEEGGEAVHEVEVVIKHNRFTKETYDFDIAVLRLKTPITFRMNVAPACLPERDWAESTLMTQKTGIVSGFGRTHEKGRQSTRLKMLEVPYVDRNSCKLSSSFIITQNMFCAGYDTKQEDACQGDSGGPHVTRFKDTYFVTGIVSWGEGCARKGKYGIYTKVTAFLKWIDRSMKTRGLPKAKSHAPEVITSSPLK

On to `COC(=O)c1cccc(CNC(=O)c2cc3c(O)cccc3n2Cc2cccc(C(=N)N)c2)c1`, for which the affinity, expressed as Ki, was 2040 nM.

In turn, `CN(CCNC(=O)c1cc2c(O)cccc2n1Cc1cccc(C(=N)N)c1)c1cccc2ccccc12` came in with a Ki of 2470 nM.

The compound `C[N+](C)(C)c1ccc(CNC(=O)c2cc3c(Br)cccc3n2Cc2cccc(C(=N)N)c2)cc1` came in with a Ki of 24 nM.

`Cc1cccc2c1cc(C(=O)NCC1CCN(C(=N)N)CC1)n2Cc1cccc(C(=N)N)c1` returned a Ki of 25 nM.

Take `COc1ccc2cc(C(=O)NCc3ccc([N+](C)(C)C)cc3)n(Cc3cccc(C(=N)N)c3)c2c1`: the affinity, expressed as Ki, was 1760 nM.

Take `Cc1cccc2c1cc(C(=O)NCC1CCC(C(=N)N)CC1)n2Cc1cccc(C(=N)N)c1` (centres undefined): the Ki was 45 nM.

With `C[N+](C)(C)c1ccc(CNC(=O)c2cc3cc(Br)ccc3n2Cc2cccc(C(=N)N)c2)cc1`, the Ki is 134 nM.

`N=C(N)c1cccc(CNC(=O)c2cn(Cc3cccc(C(=N)N)c3)c3ccccc23)c1` showed a Ki of 1230 nM.

Take `Cc1c(C(=O)NCc2cc[n+](C)cc2)n(Cc2cccc(C(=N)N)c2)c2ccccc12`: the Ki was 170 nM.

Turning to `CN1CCC([C@@H](NC(=O)c2cc3ccccc3n2Cc2cccc(C(=N)N)c2)c2ccc3cc(Cl)ccc3c2)CC1`, the Ki stood at 610 nM.

Compound `COc1cccc2c1cc(C(=O)NCc1ccc(O)cc1)n2Cc1cccc(C(=N)N)c1` displayed a Ki of 183 nM.

In turn, `Cc1cc(C)cc(CNC(=O)c2c(Br)c3ccccc3n2Cc2cccc(C(=N)N)c2)c1` displayed a Ki of 13 nM.

Regarding `C=CC[N+](C)(C)c1ccc(CNC(=O)c2cc3cc(F)ccc3n2Cc2cccc(C(=N)N)c2)cc1`, the Ki was determined as 141 nM.

Turning to `C[N+](C)(C)c1ccc(CNC(=O)c2cc3c(OCc4ccccc4)cccc3n2Cc2cccc(C(=N)N)c2)cc1`, the inhibition constant Ki stood at 84 nM.

For the compound `COC(=O)c1c(C(=O)OC)n(Cc2cccc(C(=N)N)c2)c2ccccc12`, the affinity corresponds to a Ki of 7500 nM.

In turn, `N=C(N)c1cccc(Cn2c(C(N)=O)cc3ccccc32)c1` registered a Ki of 5650 nM.

`N=C(N)c1cccc(Cn2c(C(=O)NCc3cccc(C(F)(F)F)c3)cc3c(O)cccc32)c1`: the Ki amounted to 476 nM.

Take `CN(C)c1ccc(CNC(=O)c2cc3cc(F)ccc3n2Cc2cccc(C(=N)N)c2)cc1`: the Ki came out at 3520 nM.

On to `CN(C)c1ccc(CNC(=O)c2cn(Cc3cccc(C(=N)N)c3)c3ccccc23)cc1`, for which the Ki came to 2190 nM.

For `N=C(N)c1cccc(Cn2c(C(=O)NCCc3ccc(Cl)cc3)cc3c(O)cccc32)c1`, the affinity corresponds to a Ki of 1560 nM.

Turning to `Cc1cccc2c1cc(C(=O)NCc1cccc3ccccc13)n2Cc1cccc(C(=N)N)c1`, the affinity, expressed as Ki, was 96 nM.

In turn, `N=C(N)c1cccc(Cn2c(C(=O)NCCc3ccc(Cl)c(Cl)c3)cc3c(O)cccc32)c1` returned a Ki of 918 nM.

Turning to `N=C(N)c1cccc(Cn2c(C(=O)NCC34C[C@H]5C[C@@H](C3)C[C@@H](C4)C5)cc3c(O)cccc32)c1`, the Ki is 274 nM.

The compound `COc1cccc2c1cc(C(=O)NCCc1cc[n+](C)cc1)n2Cc1cccc(C(=N)N)c1` had a Ki of 160 nM.

For the compound `C[n+]1cccc(CC(NC(=O)c2cc3ccccc3n2Cc2cccc(C(=N)N)c2)C(N)=O)c1` (centres undefined), affinity was put at a Ki of 3900 nM.

Consider `N=C(N)c1cccc(Cn2c(C(=O)NCCc3ccc(Cl)cc3Cl)cc3c(O)cccc32)c1`, for which the inhibitory constant (Ki) was 840 nM.

`COc1cccc(CNC(=O)c2cc3c(O)cccc3n2Cc2cccc(C(=N)N)c2)c1`: affinity was put at a Ki of 308 nM.

In turn, `C[N+](C)(C)c1ccc(CNC(=O)c2cc3cc(S(C)(=O)=O)ccc3n2Cc2cccc(C(=N)N)c2)cc1` had a Ki of 226 nM.

As for `N=C(N)c1cccc(Cn2c(C(=O)NCc3cccc(F)c3)cc3c(O)cccc32)c1`, the Ki amounted to 720 nM.

On to `N=C(N)c1cccc(COC(=O)c2cc3cc(OCc4ccccc4)ccc3n2Cc2cccc(C(=N)N)c2)c1`, for which the Ki was 61 nM.

In turn, `CSC(=O)c1cc2c(O)cccc2n1Cc1cccc(C(=N)N)c1` displayed a Ki of 2990 nM.

In turn, `COc1ccc2c(cc(C(=O)NCc3ccncc3)n2Cc2cccc(C(=N)N)c2)c1OC` came in with a Ki of 5310 nM.

In the case of `C[n+]1ccc(CNC(=O)c2cc3ccccc3n2Cc2cccc(C(=N)N)c2)cc1`, affinity was put at a Ki of 150 nM.

The compound `N=C(N)c1cccc(Cn2c(C(=O)NCc3cccc(NC(N)=O)c3)cc3c(O)cccc32)c1` gave a Ki of 180 nM.

The compound `N=C(N)c1cccc(Cn2c(C(=O)NCc3cccc(Br)c3)cc3c(O)cccc32)c1` came in with a Ki of 117 nM.

In turn, `Cc1cccc2c1cc(C(=O)NCc1cccc(-c3ccccc3)c1)n2Cc1cccc(C(=N)N)c1` displayed an inhibition constant (Ki) of 325 nM.

For the compound `N=C(N)c1ccc(CNC(=O)c2cn(Cc3cccc(C(=N)N)c3)c3ccccc23)cc1`, the Ki was determined as 1120 nM.

In turn, `COc1cccc2c1cc(C(=O)NCCc1ccc(O)cc1)n2Cc1cccc(C(=N)N)c1` registered a Ki of 970 nM.

Turning to `N=C(N)c1cccc(Cn2c(C(N)=O)cc3c(O)cccc32)c1`, the Ki amounted to 7160 nM.

For `N=C(N)c1cccc(CNC(=O)c2cc3ccccc3n2Cc2cccc(C(=N)N)c2)c1`, the Ki was 26 nM and 19 nM.

As for `N=C(N)c1cccc(Cn2c(C(=O)NCc3cc(F)cc(F)c3)cc3c(O)cccc32)c1`, the affinity corresponds to a Ki of 191 nM.

For the compound `Cc1cccc2c1cc(C(=O)NCc1cc[n+]([O-])cc1)n2Cc1cccc(C(=N)N)c1`, the Ki was 14500 nM.

For the compound `N=C(N)c1cccc(Cn2c(C(=O)NC(c3ccccc3)c3ccncc3)cc3ccccc32)c1` (centres undefined), the affinity, expressed as Ki, was 7030 nM.

In turn, `C[N+]1(C)CCC(C(NC(=O)c2cc3ccccc3n2Cc2cccc(C(=N)N)c2)c2ccc3cc(Cl)ccc3c2)CC1` (centres undefined) yielded an inhibition constant (Ki) of 1310 nM.

Regarding `N=C(N)c1cccc(Cn2c(C(=O)NCc3cccc4ccccc34)c(Cl)c3ccccc32)c1`, the inhibitory constant (Ki) was determined as 304 nM.

In turn, `N=C(N)c1cccc(Cn2c(C(=O)NCc3cccc(C(=O)O)c3)cc3c(O)cccc32)c1` had a Ki of 10000 nM.

As to `N=C(N)c1cccc(Cn2c(C(=O)NCc3ccccc3)cc3c(O)cccc32)c1`, the Ki stood at 2030 nM.

`CCOC(=O)c1cc2c(C)cccc2n1Cc1cccc(C(=N)N)c1` returned an inhibition constant Ki of 948 nM.

In the case of `N=C(N)c1cccc(Cn2c(C(=O)NCCNc3cccc4ccccc34)cc3c(O)cccc32)c1`, the Ki came out at 318 nM.

Compound `Cc1cccc2c1cc(C(=O)NCc1ccc(N(C)C)cc1)n2Cc1cccc(C(=N)N)c1` showed a Ki of 1310 nM.

The compound `C[N+](C)(C)c1ccc(CNC(=O)c2cc3ccccc3n2Cc2cccc(C(=N)N)c2)cc1` yielded a Ki of 400 nM.

As to `C[N+](C)(C)c1ccc(CNC(=O)c2cc3cc(N)ccc3n2Cc2cccc(C(=N)N)c2)cc1`, affinity was put at a Ki of 60 nM.

The compound `C[n+]1ccc(CNC(=O)c2cc3ccccc3n2Cc2ccc(C(=N)N)cc2)cc1` yielded a Ki of 600 nM.

For `C[N+](C)(C)c1ccc(CNC(=O)c2cn(Cc3cccc(C(=N)N)c3)c3ccccc23)cc1`, the Ki came out at 1820 nM.

As for `COc1ccc2c(c1)cc(C(=O)NCc1ccc([N+](C)(C)C)cc1)n2Cc1cccc(C(=N)N)c1`, the affinity, expressed as Ki, was 94 nM.

In the case of `CCN(Cc1cc[n+](C)cc1)C(=O)c1cc2ccccc2n1Cc1cccc(C(=N)N)c1`, the affinity, expressed as Ki, was 500 nM.

Turning to `N=C(N)c1cccc(Cn2c(C(=O)NCc3ccc4ccccc4c3)cc3c(O)cccc32)c1`, the Ki is 1720 nM.

As for `N=C(N)c1cccc(Cn2c(C(=O)NCc3ccc4ccc5cccc6ccc3c4c56)cc3c(O)cccc32)c1`, the inhibitory constant (Ki) was 2060 nM.

`N=C(N)c1cccc(CNC(=O)c2cc3cc(N)ccc3n2Cc2cccc(C(=N)N)c2)c1` showed a Ki of 51 nM.

The compound `C[N+](C)(C)c1ccc(CNC(=O)c2cc3cc([N+](=O)[O-])ccc3n2Cc2cccc(C(=N)N)c2)cc1` registered a Ki of 144 nM.

In turn, `COC(=O)CN(Cc1cc[n+](C)cc1)C(=O)c1cc2ccccc2n1Cc1cccc(C(=N)N)c1` yielded a Ki of 170 nM.

`N=C(N)c1cccc(Cn2c(C(=O)NCc3ccccn3)cc3c(O)cccc32)c1` had a Ki of 3330 nM.

`CCOC(=O)c1cc2ccccc2n1Cc1cccc(C(=N)N)c1` displayed a Ki of 4200 nM.

`Cc1cccc2c1cc(C(N)=O)n2Cc1cccc(C(=N)N)c1` returned a Ki of 7910 nM.

The compound `C[n+]1ccc(CNC(=O)c2cc3cc(F)ccc3n2Cc2cccc(C(=N)N)c2)cc1` showed a Ki of 360 nM.

With `N=C(N)c1cccc(Cn2c(C(=O)NCc3cccc(I)c3)cc3c(O)cccc32)c1`, the Ki was determined as 42 nM.

With `N=C(N)c1cccc(Cn2c(C(=O)NNS(=O)(=O)c3ccccc3)cc3c(O)cccc32)c1`, the inhibitory constant (Ki) was found to be 7050 nM.

The compound `COc1cccc2c1cc(C(=O)NCc1ccc([N+](C)(C)C)cc1)n2Cc1cccc(C(=N)N)c1` yielded an inhibitory constant (Ki) of 62 nM.

`C#CC[N+](C)(C)c1ccc(CNC(=O)c2cc3cc(F)ccc3n2Cc2cccc(C(=N)N)c2)cc1` registered a Ki of 76 nM.

For the compound `C[n+]1ccc(CNC(=O)c2cc3c(O)cccc3n2Cc2cccc(C(=N)N)c2)c2ccccc21`, the inhibition constant (Ki) was determined as 50 nM.

Regarding `Cc1cccc2c1cc(C(=O)NCc1ccnc3ccccc13)n2Cc1cccc(C(=N)N)c1`, the Ki amounted to 173 nM.

Compound `COc1cccc2c1cc(C(=O)NC(c1ccccc1)c1ccncc1)n2Cc1cccc(C(=N)N)c1` (centres undefined) showed a Ki of 6790 nM.

Take `N=C(N)c1cccc(CNC(=O)c2cc3cc(OCc4ccccc4)ccc3n2Cc2cccc(C(=N)N)c2)c1`: the inhibitory constant (Ki) came out at 133 nM.

Turning to `COc1cc(CNC(=O)c2cc3c(O)cccc3n2Cc2cccc(C(=N)N)c2)cc(OC)c1`, the Ki came out at 193 nM.

As to `C[N+](C)(C)c1ccc(CNC(=O)c2cc3cc(F)ccc3n2Cc2cccc(C(=N)N)c2)cc1`, the Ki was 66 nM and 90 nM.

Regarding `N=C(N)c1cccc(Cn2c(C(=O)NCC(=O)Nc3ccc4ccccc4c3)cc3c(O)cccc32)c1`, the inhibitory constant (Ki) came to 2380 nM.

Compound `N=C(N)c1cccc(CNC(=O)c2cc3cc(O)ccc3n2Cc2cccc(C(=N)N)c2)c1` came in with a Ki of 77 nM.

`Cc1c(F)ccc2c1cc(C(=O)NCc1ccc([N+](C)(C)Cc3ccccc3)cc1)n2Cc1cccc(C(=N)N)c1` had a Ki of 245 nM.

Compound `COC(=O)c1c(C)c2ccccc2n1Cc1cccc(C(=N)N)c1` showed an inhibition constant Ki of 8800 nM.

Turning to `N=C(N)c1cccc(Cn2c(C(=O)NCc3ccnc4ccccc34)cc3c(O)cccc32)c1`, the Ki came to 300 nM.

For `Cc1cccc2c1cc(C(=O)NCc1ccc([N+](C)(C)C)cc1)n2Cc1cccc(C(=N)N)c1`, the Ki is 16 nM and 14 nM.

In the case of `N=C(N)c1cccc(Cn2c(C(=O)NCc3ccc(Cl)cc3)cc3ccccc32)c1`, the Ki stood at 3600 nM.

Compound `N=C(N)c1cccc(Cn2c(C(=O)NCc3cccc4ccccc34)cc3c(O)cccc32)c1` yielded an inhibition constant Ki of 68 nM.

For `Cc1cccc2c1cc(C(=O)NCc1ccc(O)cc1)n2Cc1cccc(C(=N)N)c1`, the Ki is 1610 nM.
